Test results published in ChEMBL document CHEMBL1157778, “Frontal affinity chromatography-mass spectrometry useful for characterization of new ligands for GPR17 receptor” (J Med Chem, 2010).

Experiments:
Type in all cases: functional, cell-based
[1] = target: T1, Uracil nucleotide/cysteinyl leukotriene receptor (Homo sapiens, UniProt Q13304); assay: Antagonist activity at human GPR17 expressed in human 1321N1 cells assessed as inhibition of UDP-glucose-induced [35S]GTPgammaS binding after 30 mins by rapid filtration assay
T1 sequence (Q13304 whole entry): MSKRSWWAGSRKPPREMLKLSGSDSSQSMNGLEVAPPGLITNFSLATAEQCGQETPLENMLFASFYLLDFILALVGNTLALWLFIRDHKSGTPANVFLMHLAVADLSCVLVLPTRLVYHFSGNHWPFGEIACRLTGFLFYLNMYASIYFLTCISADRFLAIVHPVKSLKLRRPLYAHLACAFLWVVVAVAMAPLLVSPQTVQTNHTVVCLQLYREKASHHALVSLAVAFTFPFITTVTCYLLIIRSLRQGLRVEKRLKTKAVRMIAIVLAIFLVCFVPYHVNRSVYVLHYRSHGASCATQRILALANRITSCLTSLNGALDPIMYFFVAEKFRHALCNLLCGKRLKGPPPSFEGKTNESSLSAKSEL

[2] = Antagonist activity at human GPR17 R255I mutant expressed in human 1321N1 cells assessed as inhibition of UDP-glucose-induced [35S]GTPgammaS binding after 30 mins by rapid filtration assay
[3] = target: T1, Uracil nucleotide/cysteinyl leukotriene receptor; assay: Agonist activity at human GPR17 expressed in human 1321N1 cells assessed as induction of [35S]GTPgammaS binding after 30 mins by rapid filtration assay
[4] = Agonist activity at human GPR17 R255I mutant expressed in human 1321N1 cells assessed as induction of [35S]GTPgammaS binding after 30 mins by rapid filtration assay

SMILES | IC50 [1] [nM] | EC50 [3] [nM] | also measured
CNc1ncnc2c1ncn2[C@@H]1O[C@H](COP(=O)(O)OP(=O)(O)OP(=O)(O)O)[C@@H](O)[C@H]1O | 112 | – | –
CNc1ncnc2c1ncn2[C@H]1C[C@H](OP(=O)(O)O)[C@@H](COP(=O)(O)O)O1 | 508 | – | IC50 [2]: 227 nM
CNc1nc(Cl)cc2c1ncn2[C@@H]1O[C@H](COP(=O)(O)OP(=O)(O)OP(=O)(O)O)[C@@H](O)[C@H]1O | – | 1.7 | –
O=c1[nH]c(=O)n([C@@H]2O[C@H](COP(=O)(O)OP(=O)(O)O)[C@@H](O)[C@H]2O)cc1I | – | 945 | EC50 [4]: 1870 nM
CNc1nc(Cl)nc2c1ncn2[C@@H]1O[C@H](COP(=O)(O)OP(=O)(O)OP(=O)(O)O)[C@@H](O)[C@H]1O | – | 11 | –
Nc1nc(C#Cc2ccccc2)nc2c1ncn2[C@@H]1O[C@H](COP(=O)(O)OP(=O)(O)OP(=O)(O)O)[C@@H](O)[C@H]1O | – | 0.036 | EC50 [4]: 0.0254 nM
O=P(O)(O)OP(=O)(O)OP(=O)(O)OC[C@H]1O[C@@H](n2cnc3c(NC4CCCC4)ncnc32)[C@H](O)[C@@H]1O | – | 1.4 | –
Nc1nc(Cl)nc2c1ncn2[C@H]1C[C@H](OP(=O)(O)O)[C@@H](COP(=O)(O)O)O1 | 582 | – | –
